Measurements from patent publication US12486269B2 (Aconcagua Bio, Inc., priority 2024, dated 2025).

Tests used:
[1] = target: T1, COS-7/AMY3 (human calcitonin receptor (CTR) and RAMP3) (Homo sapiens, UniProt O60896+P30988); test: Amylin Receptor cAMP Assay II; format: cell-based; conditions: values marked **: Amylin Receptor cAMP Assay II; COS-7/AMY3 cells, cAMP dynamic 2 kit, 30 min; read-out: Amylin Receptor cAMP Stimulation Activity: EC50
T1 construct: expressed in transfected cells; host or cells: COS-7
T1 sequence (O60896 24-148, one chain of several): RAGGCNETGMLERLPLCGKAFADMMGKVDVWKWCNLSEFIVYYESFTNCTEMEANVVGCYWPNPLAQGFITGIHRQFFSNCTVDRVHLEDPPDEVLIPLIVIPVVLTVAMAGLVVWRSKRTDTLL
Source text: AMYRs are heterodimers of the class B calcitonin (CT) G-protein-coupled receptor (CTR) and receptor activity-modifying proteins (RAMPs). All three RAMPs can interact with the CTR and form AMY1, AMY2, AMY3 with RAMP1, RAMP2 and RAMP3, respectively. Like other class B1 GPCRs, the CT receptor family is canonically coupled to Gs-mediated cAMP production, and measurement of cAMP accumulation has been the primary assay used to determine peptide selectivity and potency.
(§1) To optimize functional activity directed toward Gαs coupling, COS-7 cells were stably transfected with human calcitonin receptor (CTR) and RAMP3, simultaneously. 100×concentration of compound working solutions were prepared with 4-fold serial dilution in 384-well Echo LDV plate (Labcyte, Cat #LP-0200-BC). 200 nL/well 100×concentration of compound working solutions were moved to 384-well white microplate (Perkin Elmer, Cat #6007680) using Labcyte ECHO550. 1×10^5 cells/mL COS-7/AMY3 cell suspensions prepared with assay buffer [HBSS containing 20 mM HEPES (Gibco, Cat #15630-080), 0.5 mM IBMX (Sigma, Cat #15879) and 0.1% Casein (Sigma, Cat #C4765)], 20 μL cell suspensions were added to each well of previous generated assay plate which already contains 200 nL compound at 100×concentration using ThermoFisher Multidrop Combi (2000 cells/well). Seal the plate and incubate at 37° C. with 5% CO2 for 30 min.
(§2) After incubation, the cAMP assay signal was generated using cAMP dynamic 2 kit (Revvity, Cat #62AM4PEC). 10 μL cAMP-d2 working solution was added to each well, followed by 10 μL Anti-cAMP antibody-cryptate working solution which was added to each well using CERTUS FLEX LIQUID […]. The samples were then incubated at room temperature for 1 hour protected from light. the fluorescence was read at 665 and 615 nm with Reader PerkinElmer EnVision 2105. % Activity=100−(mean RLU of test sample−mean RLU of positive control)/(mean RLU of vehicle control−mean RLU of positive control)×100 Calcitonin Receptor (CTR) cAMP Assay

[2] = target: T2, human calcitonin receptor (CTR) (Homo sapiens, UniProt P30988); test: Calcitonin Receptor (CTR) cAMP Assay; format: cell-based; conditions: COS7-human CTR Clone #2 stable cell line, cAMP dynamic 2 kit, 30 min; read-out: Calcitonin Receptor cAMP Stimulation Activity: EC50
T2 construct: expressed in transfected cells; host or cells: COS-7 (COS7-human CTR Clone #2)
T2 sequence (P30988 25-474): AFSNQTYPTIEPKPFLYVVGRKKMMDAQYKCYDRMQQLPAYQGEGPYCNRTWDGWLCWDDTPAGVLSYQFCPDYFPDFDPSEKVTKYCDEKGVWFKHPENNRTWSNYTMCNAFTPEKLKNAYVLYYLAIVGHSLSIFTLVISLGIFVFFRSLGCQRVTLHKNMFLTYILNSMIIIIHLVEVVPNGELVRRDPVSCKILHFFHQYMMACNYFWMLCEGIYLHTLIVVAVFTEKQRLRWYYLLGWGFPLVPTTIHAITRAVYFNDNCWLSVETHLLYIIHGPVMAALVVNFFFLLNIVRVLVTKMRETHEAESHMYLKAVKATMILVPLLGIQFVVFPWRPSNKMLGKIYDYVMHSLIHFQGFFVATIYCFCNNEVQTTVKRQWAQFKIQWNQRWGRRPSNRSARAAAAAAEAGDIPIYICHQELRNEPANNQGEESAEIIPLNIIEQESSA
Description: as §2
The calcitonin receptor (CTR) belongs to the subfamily of GPCRs known as the secretin or ‘B’ family of GPCRs. Like other class B1 GPCRs, the CT receptor family is canonically coupled to Gs-mediated cAMP production, and measurement of cAMP accumulation has been the primary assay used to determine peptide selectivity and potency.
as §1, with “to create COS7-human CTR Clone #2 stable cell line.” for “and RAMP3, simultaneously.”, “COS7-human CTR Clone #2” for “COS-7/AMY3”
as §2, with “control)×100” for “control)×100 Calcitonin Receptor (CTR) cAMP Assay”

| EC50 [1] | EC50 [2] | Compound |
| --- | --- | --- |
| 53.1 nM | 0.786 nM | N#Cc1ccc(Cn2c(=O)oc3cc(-c4c(-c5n[nH]c(=O)o5)c(CCc5ccc(F)cc5)nc5c4S(=O)(=O)N4CCC[C@@H]54)ccc32)nc1 [Compound 213, (S)-6-((6-(2-(4-fluorophenethyl)-5,5-dioxido-3-(5-oxo-4,5-dihydro-1,3,4-oxadiazol-2-yl)-7,8,9,9a-tetrahydropyrrolo[1′,2′:2,3]isothiazolo[4,5-b]pyridin-4-yl)-2-oxobenzo[d]oxazol-3(2H)-yl)methyl)nicotinonitrile] |
| 128 nM | 177 nM | COc1cccc2c1CC[C@H]2Nc1nccc2cc(-c3c(-c4n[nH]c(=O)o4)c(CCc4ccc(F)cc4)nc4c3S(=O)(=O)C[C@@H]4C(C)C)sc12 [Compound 236, 5-((R)-5-(4-fluorophenethyl)-3-isopropyl-7-(7-(((R)-4-methoxy-2,3-dihydro-1H-inden-1-yl)amino)thieno[2,3-c]pyridin-2-yl)-1,1-dioxido-2,3-dihydrothieno[3,2-b]pyridin-6-yl)-1,3,4-oxadiazol-2(3H)-one] |
| 0.0995 nM | 0.00616 nM | COc1c(F)c(F)cc2c1CC[C@H]2Nc1nc(C)cc2cc(-c3c4c(nc(CCc5ccc(F)cc5)c3-c3n[nH]c(=O)o3)C35CC(CN3C4=O)C5)sc12 [Compound 195, (R)-5-(4-(7-((5,6-difluoro-4-methoxy-2,3-dihydro-1H-inden-1-yl)amino)-5-methylthieno[2,3-c]pyridin-2-yl)-2-(4-fluorophenethyl)-5-oxo-8,9-dihydro-5H,7H-8,9a-methanopyrido[2,3-a]pyrrolizin-3-yl)-1,3,4-oxadiazol-2(3H)-one] |
| 1.45 nM | 0.0666 nM | O=C1c2c(nc(CCc3ccc(F)cc3)c(-c3n[nH]c(=O)o3)c2-c2cc3ccnc(N[C@@H]4CCc5c(F)cccc54)c3s2)C23CC(CN12)C3 [Compound 272, (R)-5-(4-(7-((4-fluoro-2,3-dihydro-1H-inden-1-yl)amino)thieno[2,3-c]pyridin-2-yl)-2-(4-fluorophenethyl)-5-oxo-8,9-dihydro-5H,7H-8,9a-methanopyrido[2,3-a]pyrrolizin-3-yl)-1,3,4-oxadiazol-2(3H)-one] |
| 6.78 nM | 0.219 nM | O=C1c2c(nc(CCc3ccc(F)cc3)c(-c3n[nH]c(=O)o3)c2-c2cc3ccnc(N[C@@H]4CCc5ccc(F)cc54)c3s2)[C@@H]2CCCN12 [Compound 246, 5-((S)-4-(7-(((R)-6-fluoro-2,3-dihydro-1H-inden-1-yl)amino)thieno[2,3-c]pyridin-2-yl)-2-(4-fluorophenethyl)-5-oxo-7,8,9,9a-tetrahydro-5H-pyrido[2,3-a]pyrrolizin-3-yl)-1,3,4-oxadiazol-2(3H)-one] |
| 2.81 nM | 0.0963 nM | COc1c(F)ccc2c1CC[C@H]2Nc1nccc2cc(-c3c4c(nc(CCc5ccc(F)cc5)c3-c3n[nH]c(=O)o3)[C@@H]3COCCN3C4=O)sc12 [Compound 262, (R)-4-(7-(((R)-5-fluoro-4-methoxy-2,3-dihydro-1H-inden-1-yl)amino)thieno[2,3-c]pyridin-2-yl)-2-(4-fluorophenethyl)-3-(5-oxo-4,5-dihydro-1,3,4-oxadiazol-2-yl)-7,8,10,10a-tetrahydro-5H-pyrido[2′,3′:3,4]pyrrolo[2,1-c][1,4]oxazin-5-one] |
| 1790 nM | 58.9 nM | O=C1c2c(nc(CCC3CCOCC3)c(-c3cc(=O)[nH]o3)c2-c2cc3ccnc(N[C@@H]4CCc5ncccc54)c3s2)[C@@H]2CCCN12 [Compound 197, 5-((S)-4-(7-(((R)-6,7-dihydro-5H-cyclopenta[b]pyridin-5-yl)amino)thieno[2,3-c]pyridin-2-yl)-5-oxo-2-(2-(tetrahydro-2H-pyran-4-yl)ethyl)-7,8,9,9a-tetrahydro-5H-pyrido[2,3-a]pyrrolizin-3-yl)isoxazol-3(2H)-one] |
| 50.7 nM | 0.702 nM | COc1cccc2c1CC[C@H]2Nc1nccc2cc(-c3c4c(nc(C[C@H]5CCc6cc(F)ccc65)c3-c3n[nH]c(=O)o3)[C@@H]3CCCN3C4=O)sc12 [Compound 224, 5-((S)-2-(((R)-5-fluoro-2,3-dihydro-1H-inden-1-yl)methyl)-4-(7-(((R)-4-methoxy-2,3-dihydro-1H-inden-1-yl)amino)thieno[2,3-c]pyridin-2-yl)-5-oxo-7,8,9,9a-tetrahydro-5H-pyrido[2,3-a]pyrrolizin-3-yl)-1,3,4-oxadiazol-2(3H)-one] |
| 1.59 nM | 0.0436 nM | COc1c(F)cc(F)c2c1CC[C@H]2Nc1nccc2cc(-c3c4c(nc(CCc5ccc(F)cc5)c3-c3n[nH]c(=O)o3)C35CC(CN3C4=O)C5)sc12 [Compound 288, (R)-5-(4-(7-((5,7-difluoro-4-methoxy-2,3-dihydro-1H-inden-1-yl)amino)thieno[2,3-c]pyridin-2-yl)-2-(4-fluorophenethyl)-5-oxo-8,9-dihydro-5H,7H-8,9a-methanopyrido[2,3-a]pyrrolizin-3-yl)-1,3,4-oxadiazol-2(3H)-one] |
| 101 nM | 12.9 nM | O=C(NCc1ccc(F)c(F)c1)c1ccc(-c2c3c(nc(CCc4ccc(F)cc4)c2-c2noc(=O)[nH]2)[C@@H]2CCCN2C3=O)s1 [Compound 101] |
| 21.9 nM | 1.13 nM | COc1cccc2c1CC[C@H]2Nc1nccc2cc(-c3c4c(nc(CC5CCc6cc(F)ccc65)c3-c3noc(=O)[nH]3)[C@@H]3CCCN3C4=O)sc12 (some centres unmarked) [Compound 128] |
| 15300 nM | 171 nM | N#Cc1ccc(Cn2ccc3cc(-c4c5c(nc(CCC67CCC(CC6)OC7)c4-c4n[nH]c(=O)o4)[C@@H]4CCCN4C5=O)cnc32)c(F)c1 [Compound 231, (S)-4-((5-(2-(2-(2-oxabicyclo[2.2.2]octan-4-yl)ethyl)-5-oxo-3-(5-oxo-4,5-dihydro-1,3,4-oxadiazol-2-yl)-7,8,9,9a-tetrahydro-5H-pyrido[2,3-a]pyrrolizin-4-yl)-1H-pyrrolo[2,3-b]pyridin-1-yl)methyl)-3-fluorobenzonitrile] |
| 7.34 nM | 0.174 nM | Cc1cc2cc(-c3c4c(nc(CCc5ccc(F)cc5)c3-c3n[nH]c(=O)o3)C35CC(CN3C4=O)C5)sc2c(N[C@@H]2CCc3c(Cl)cncc32)n1 [Compound 265, (R)-5-(4-(7-((4-chloro-6,7-dihydro-5H-cyclopenta[c]pyridin-7-yl)amino)-5-methylthieno[2,3-c]pyridin-2-yl)-2-(4-fluorophenethyl)-5-oxo-8,9-dihydro-5H,7H-8,9a-methanopyrido[2,3-a]pyrrolizin-3-yl)-1,3,4-oxadiazol-2(3H)-one] |
